From patent publication US20220347323A1, “Positron Emission Tomography Guided Delivery of Mitochondral Complex I Inhibitors” (priority 2019, published 2022)
Entries after “also recorded” stand apart in the source; their conditions may differ.

Key:
Kras/Lkb1 tumors = details: cited from earlier work
A549 and RH2 cells = experiment: Cell viability of human ADC (A549) and SCC (RH2) cell lines; assay type: cell-based; details: A549 vs RH2, 48 hr, low doses
Excerpt: (§1) Experiments were repeated twice.

A549 cells [1] = experiment: Respirometry (Seahorse OCR), A549; assay type: cell-based, human; details: A549, 1 mM, 45 min
Protocol: Experiments were conducted on a Seahorse XF96 Extracellular Flux Analyzer (Agilent Technologies) in order to measure oxygen consumption rate (OCR) and extracellular acidification rate (ECAR). […] On the day of the experiment, assay medium (Seahorse XF Base Medium supplemented with 2 mM L-glutamine, 1mM Pyruvate and 10 mM glucose) was freshly prepared. The cells were washed twice with assay medium and brought to a final volume of 175 μL per well. The XF96 plate was placed in a 37° C. incubator without CO2 for 30 minutes prior to loading the plate into the instrument. Injection of compounds during the assay included: the mitochondrial ATP Synthase inhibitor oligomycin (final concentration of 2 μM); the chemical uncoupler, FCCP (final concentration of 1 μM); and the Complex I inhibitors rotenone (final concentrations 2 μM) and phenformin (final concentration 1 mM) and Complex III inhibitor antimycin A (final concentrations of 2 μM). […] Activity of complex I was measured in permeabilized cells using XF PMP assay where complex I dependent OCR was measured by determining OCR in the presence of pyruvate and malate (as substrates for complex I) before and after addition of rotenone (complex I inhibitor).

[2] = Phenformin quantification in lung tumors by LC/MS; assay type: in vivo, mouse; details: 100-200 mg/kg oral gavage, 5 days, vs vehicle
Protocol: Tumors were homogenized with a Tissue Master (Omni international) in 1 ml chilled 80% Methanol. Tumor suspensions were spun down at 4° C. for 5 min at 17,000g, and the top layer taken as extracted metabolites. The volume equivalent of 1 mg of tumor was transferred into glass vials and the samples were dried with a EZ2-Elite lyophilizer (Genevac). Dried metabolites were re-suspended in 100 μl of 50%:50% acetonitrile (ACN):dH20 solution; 10 μl of these suspensions were injected per analysis. Samples were run on a Vanquish (Thermo Scientific) UHPLC system with mobile phase A (5 mM NH4AcO, pH 9.9) and mobile phase B (ACN). […] The UHPLC was coupled to a Q-Exactive (Thermo Scientific) mass analyzer running in positive mode at 3.5 kV with an MS1 resolution of 70,000. Metabolites were identified using exact mass (MS1), retention time, and fragmentation patterns (MS2) at normalized collision energy (NCE) 35. Quantification was performed via area under the curve (AUC) integration of MS1 ion chromatograms with the MZmine 2 software package. For the quantification of absolute moles of phenformin, one tumor from the vehicle group was selected to provide a representative tumor small molecular matrix. […]

A549 cells [3] = experiment: Mitochondrial membrane potential (ΔΨ) by TMRE flow cytometry, A549; assay type: cell-based, human; details: A549, short-term treatment 3 hr
Protocol: Experiments were conducted by analyzing TMRE fluorescence using flow cytometry. […] Cells were resuspended in 0.5 ml DMEM with 5% FBS containing different concentrations of phenformin or oligomycin or FCCP as indicated in figure legends. […] Cells were washed twice in phenol red free DMEM and cellular fluorescence was acquired with a BD LSRII analyzer at UCLA Flow Cytometry Core. Data was analyzed with Flowing Software.

[4] = system: mouse adenocarcinoma and squamous cell carcinoma cell lines; experiment: Cell viability of mouse adenocarcinoma and squamous cell carcinoma cell lines; assay type: cell-based; details: 48 hr, low doses
Excerpt: as §1

A549 cells [5] = experiment: In vitro 18FBnTP uptake assay, A549; assay type: cell-based, human; details: A549, 1 mM, 3 hr
Kras/Lkb1 lung tumors [6] = experiment: Cleaved caspase 3 and Ki67 staining of Kras/Lkb1 tumors; assay type: in vivo, mouse; details: short-term 5 day treatment
Protocol: After the fixation step in 10% neutral buffered formalin overnight, lungs were transferred to 70% ethanol and further processing and embedding was done by the TPCL at UCLA. The following antibodies were used: anti-CK5 (EP1601Y) (abcam, ab52635 1:100), anti-TTF1 (8G7G3/1) (Dako, 1:1000), anti-Ki67 (SP6) (Thermo-Scientific, RM-9106-SO 1:200), anti-Glut1 (alpha-diagnostic, GT11-A, 1:400). Slides were scanned onto a ScanScope AT (Aperio Technologies Inc.). Digital slides were analyzed with Definiens and QuPath software.

Kras/Lkb1 lung tumors [7] = experiment: 18FBnTP PET of lung tumors in Kras/Lkb1 GEMMS before and after treatment; assay type: in vivo, mouse; details: 5 days, vs vehicle
Excerpt: We performed studies with the genetically engineered mouse model of lung cancer using Kras-Lox-Stop-Lox-G12D; Lkb1 Lox/Lox; Rosa26-Lox-Stop-Lox-Luc mice (KL) as described previously [Ref. 33]. Briefly, lung tumors were induced by intranasal administration of 5×10^5 transduction units of Lenti-PGK-Cre (Cat. #FCT071, Kerafast,) as previously described [Ref. 9, 33]. Lentiviral delivery of Cre recombinase to KL mice leads to near 100% development of lung adenocarcinomas [Ref. 36]. KL mice that were inhaled with LentiCre were used in studies with Phenformin treatment. For studies where mice were imaged with both ^18FBnTP and ^18F-FDG probes, KL mice were inhaled with Adenoviral Cre, which leads to development of both ADC and SCC tumors. For all treatments, KL mice were imaged with ^18FBnTP and sorted into two groups based on tumor maximum percent injected dose per gram (%ID/g) values, so that two groups would have similar maximum %ID/g values. Treatment was initiated on the same day or on the following day after ^18FBnTP imaging. Mice were treated with 125 mg/kg/day phenformin for 5 days or 15 mg/kg/day IACS-010759 for 12 days. The drugs were delivered by oral gavage. All experimental procedures that were performed on mice were approved by the UCLA Animal Research Committee (ARC). Both male and female mice were used in all experiments and no preference in mouse gender was given for any of the studies.
In order to reduce variability between mice imaged with ^18FBnTP, maximum percent injected dose per gram (%ID/g) for each tumor was normalized to maximum %ID/g of heart as indicated in the figures. For waterfall plots in FIG. 2m and FIGS. 8e-8f, we calculated % change in the uptake of the ^18FBnTP probe post-treatment relative to pre-treatment using maximum %ID/g of the tumor that was normalized to maximum %ID/g of the heart for each mouse.

Kras/Lkb1 lung tumors [8] = experiment: Treatment of Kras/Lkb1 mice, tumor burden; assay type: in vivo, mouse
Kras/Lkb1 lung tumors [9] = experiment: Ki67 staining of TTF1+ and CK5+ Kras/Lkb1 tumors after treatment; assay type: in vivo, mouse; details: 15 mg/kg/day, 12 days

| SMILES | cellular apoptosis after longer treatment (Kras/Lkb1 tumors; 4-8 weeks treatment, Ref. 9,19) | sensitivity of Kras/Lkb1 tumors (Kras/Lkb1 tumors; Ref. 9) | response of lung SCC tumors from Kras/Lkb1 mice (Kras/Lkb1 tumors; Ref. 19,33) | sensitivity (cell viability) of lung ADC line vs SCC line (A549 and RH2 cells) | cellular OXPHOS (OCR) by respirometry (A549 cells [1]) | phenformin in lung tumor tissue by mass spectrometry [2] | ΔΨ measured by TMRE staining (A549 cells [3]) | sensitivity (cell viability) of lung ADC line vs SCC line [4] | 18FBnTP uptake (gamma counter) (A549 cells [5]) | cleaved caspase 3 and Ki67 staining (apoptosis, proliferation) (Kras/Lkb1 lung tumors [6]) | 18FBnTP uptake in lung tumors post-treatment (Kras/Lkb1 lung tumors [7]; 125 mg/kg/day oral gavage) | 18FBnTP uptake in lung tumors, three independent experiments (Kras/Lkb1 lung tumors [7]; 125 mg/kg/day) | change in 18FBnTP uptake post-treatment to pre-treatment (Kras/Lkb1 lung tumors [7]; 125 mg/kg/day) | tumor burden (percent of lung area occupied by tumor) (Kras/Lkb1 lung tumors [8]; 15 mg/kg/day oral gavage, 12 days, vs vehicle) | sensitivity of 18FBnTP POS tumors to complex I inhibition (Kras/Lkb1 lung tumors [8]; Kras/Lkb1 mice) | Ki67 positive cells in TTF1+ ADCs (Kras/Lkb1 lung tumors [9]) | response of CK5+ SCCs (Ki67) (Kras/Lkb1 lung tumors [9]) |
| --- | --- | --- | --- | --- | --- | --- | --- | --- | --- | --- | --- | --- | --- | --- | --- | --- | --- |
| [H]/N=C(/N)N/C(=N/[H])NCCc1ccccc1 [phenformin] | resulted in cellular apoptosis | sensitive | refractory | more sensitive | significant reduction of cellular OXPHOS | significant increase in phenformin in tumors | significantly reduced ΔΨ in a dose dependent manner | more sensitive | significantly reduced | no evidence of phenformin induced apoptosis or reduced cell viability; also recorded: does not induced changes in proliferation or apoptosis | significant reduction; also recorded: suppresses | significant reduction | significant drop in tracer uptake | – | – | – | – |
| Cc1nc(-c2nc(-c3ccc(OC(F)(F)F)cc3)no2)nn1Cc1cccc(N2CCC(S(C)(=O)=O)CC2)c1 [IACS-010759] | – | – | – | more sensitive | – | – | – | – | – | – | – | – | – | significant reduction in tumor burden | sensitive | significant reduction in Ki67 positive cells | refractory |
